Assay results: ChEMBL document CHEMBL4387766, “Synthesis and biological evaluation of PSMA-targeting paclitaxel conjugates” (Bioorg Med Chem Lett, 2019)

Key:
CWR22R [1] = assay: Cytotoxicity against PSMA-positive human 22Rv1 cells assessed as reduction in cell viability measured after 72 hrs by MTT assay; assay type: functional; details: 22Rv1, 72 h
[2] = Selectivity ratio of CC50 for human PSMA-deficient PC3 cells to CC50 for PSMA-positive human LNCAP cells; assay type: functional
[3] = Selectivity ratio of CC50 for human VA13 cells to CC50 for PSMA-positive human 22Rv1 cells
[4] = Cytotoxicity against HEK293T cells assessed as reduction in cell viability measured after 72 hrs by MTT assay; assay type: cell-based, HEK-293T; details: human
[5] = Cytotoxicity against human MCF7 cells assessed as reduction in cell viability measured after 72 hrs by MTT assay; assay type: cell-based
[6] = Cytotoxicity against human A549 cells assessed as reduction in cell viability measured after 72 hrs by MTT assay; assay type: cell-based
LNCaP = assay: Cytotoxicity against PSMA-positive human LNCAP cells assessed as reduction in cell viability measured after 72 hrs by MTT assay; assay type: functional
[7] = Selectivity ratio of CC50 for human PSMA-deficient PC3 cells to CC50 for PSMA-positive human 22Rv1 cells; assay type: functional
PC-3 = assay: Cytotoxicity against PSMA-deficient human PC3 cells assessed as reduction in cell viability measured after 72 hrs by MTT assay; assay type: functional; details: PC-3, 72 h
[8] = Selectivity ratio of CC50 for human VA13 cells to CC50 for PSMA-positive human LNCAP cells
[9] = Cytotoxicity against human VA13 cells assessed as reduction in cell viability measured after 72 hrs by MTT assay; assay type: cell-based; details: WI-38 VA13 cells
CWR22R [10] = assay: Antitumor activity against human 22Rv1 cells xenografted in nu/nu mouse assessed as tumor growth inhibition at 10 mg/kg, iv administered 3 times per week relative to control; assay type: functional; details: 22Rv1, iv, read-out: TGI

With `CC(=O)O[C@H]1C(=O)[C@@]2(C)[C@H]([C@H](OC(=O)c3ccccc3)[C@]3(O)C[C@H](OC(=O)[C@H](OC(=O)CCCc4cn(CCCCCC(=O)NCCCC[C@H](NC(=O)N[C@@H](CCC(=O)O)C(=O)O)C(=O)O)nn4)[C@@H](NC(=O)c4ccccc4)c4ccccc4)C(C)=C1C3(C)C)[C@]1(OC(C)=O)CO[C@@H]1C[C@@H]2O` the CC50 (CWR22R [1]) was 120 nM, the Selectivity ratio [2] was 0.85 and the Selectivity ratio [3] was 0.62. The CC50 at 72 h [4] was less than 20 nM, the CC50 at 72 h [5] was less than 20 nM and the CC50 at 72 h [6] was less than 20 nM. It also gave a CC50 (LNCaP) of 58 nM, a Selectivity ratio [7] of 1.13 and a CC50 (PC-3) of 95 nM. It also gave a Selectivity ratio [8] of 0.47, a CC50 at 72 h [9] of less than 20 nM and an inhibition in vivo at 10 mg/kg (CWR22R [10]) of 30%.
